Assay results as given in US10660872B2, “Methods for treatment of cognitive decline” (Ramot at Tel-Aviv University Ltd., priority 2014, dated 2020).

Columns and labels:
ICR mice [1] = assay: hot plate test (analgesia); conditions: single intraperitoneal dose, from 15 minutes after injection, hotplate 45° C.
aged ICR mice = assay: oasis maze test (spatial learning); conditions: 0.002 mg/kg THC, three times a week for three weeks
ICR mice [2] = assay: body temperature using a rectal thermometer; conditions: single intraperitoneal dose
ICR mice [3] = assay: open field test (immobility); conditions: single intraperitoneal dose, five minutes in arena
aged mice = assay: Object Recognition Test (visual memory) in aged mice; conditions: 0.002 mg/kg THC intraperitoneal, 3 times a week for three weeks
[4] = conventional dose 1, 2 or 10 mg/kg
[5] = low dose 0.001, 0.002 or 0.01 mg/kg

CCCCCc1cc(O)c2c(c1)OC(C)(C)[C@@H]1CCC(C)=C[C@@H]21 [THC, (−)-trans-Δ^9-tetrahydrocannabinol]
analgesia (latency to respond to noxious stimulus) (ICR mice [1]; [4]): induced conventional acute cannabinoid effects | analgesia (latency to respond to noxious stimulus) (ICR mice [1]; [5]): failed to induce any of these effects | time to finding the filled well in test trials (aged ICR mice): find the filled well in significantly less time than aged mice treated with vehicle alone | hypothermia (reduced body temperature) (ICR mice [2]; [4]): induced conventional acute cannabinoid effects | hypothermia (reduced body temperature) (ICR mice [2]; [5]): failed to induce any of these effects | immobility (slowing of motor activity) (ICR mice [3]; [4]): induced conventional acute cannabinoid effects | immobility (slowing of motor activity) (ICR mice [3]; [5]): failed to induce any of these effects | adverse acute effects upon administration (aged mice): No adverse acute effects were recognized
